Data published in ChEMBL document CHEMBL1145379 (J Med Chem, 2007).

What was measured:
Plasma = assay: Anticoagulant potency in human plasma assessed as concentration for doubling of prothrombin time; assay type: functional
Coagulation factor X = Coagulation factor X (Homo sapiens, UniProt P00742); assay: Inhibition of human F10a; settings: read-out: Ki app
Prothrombin = Prothrombin (Homo sapiens, UniProt P00734); assay: Inhibition of human F2a; settings: read-out: Ki app

Chain of Coagulation factor X (P00742 41-179 limits assumed): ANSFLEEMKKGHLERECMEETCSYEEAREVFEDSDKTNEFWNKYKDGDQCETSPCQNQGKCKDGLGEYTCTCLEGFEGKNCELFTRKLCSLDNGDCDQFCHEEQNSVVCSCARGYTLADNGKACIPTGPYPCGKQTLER
Chain of Coagulation factor X (P00742 235-488 limits assumed): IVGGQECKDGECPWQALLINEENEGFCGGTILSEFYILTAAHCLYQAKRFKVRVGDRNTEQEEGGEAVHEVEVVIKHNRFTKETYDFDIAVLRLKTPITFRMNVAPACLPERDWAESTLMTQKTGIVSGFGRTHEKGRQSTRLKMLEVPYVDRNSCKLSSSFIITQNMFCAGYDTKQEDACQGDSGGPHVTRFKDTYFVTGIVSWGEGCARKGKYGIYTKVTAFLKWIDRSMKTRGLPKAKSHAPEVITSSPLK

Which results are given for `COc1cc(Cl)cc(C(=O)Nc2ccc(Cl)cn2)c1NC(=O)c1scc(CN2CC(=O)NC2=N)c1Cl`?
Activity (Plasma): 3.3 µM; Ki (Coagulation factor X): 0.034 nM; Ki (Prothrombin): 340 nM

What does the source list for `COc1cc(Cl)cc(C(=O)Nc2ccc(Cl)cn2)c1NC(=O)c1scc(CN2CCOC2=N)c1Cl`?
Activity (Plasma): 0.26 µM; Ki (Coagulation factor X): ≤ 0.01 nM; Ki (Prothrombin): 1100 nM

What does the source list for `COc1cc(Cl)cc(C(=O)Nc2ccc(Cl)cn2)c1NC(=O)c1scc(CN(C)c2ncc[nH]2)c1Cl`?
Activity (Plasma): 1.8 µM; Ki (Coagulation factor X): 0.02 nM; Ki (Prothrombin): 860 nM

Which Ki (Coagulation factor X) does the source give for `COc1cc(Cl)cc(C(=O)Nc2ccc(Cl)cn2)c1NC(=O)c1scc(CN(C2=NCCO2)C(C)(C)C)c1Cl` here?
The Ki was 0.12 nM.

And the Ki (Prothrombin)?
Its Ki is 1700 nM.

With `COc1cc(Cl)cc(C(=O)Nc2ccc(Cl)cn2)c1NC(=O)c1scc(CN(C)CCN2CCCC2)c1Cl` as the compound, how does the Activity (Plasma) read?
The Activity was 0.24 µM.

And the Ki (Coagulation factor X)?
The Ki was 0.019 nM.

What about the Ki (Prothrombin) of the same compound?
Its Ki is 190 nM.

For `COc1cc(Cl)cc(C(=O)Nc2ccc(Cl)cn2)c1NC(=O)c1scc(CN(C)C2=NCCCO2)c1Cl`, which Activity (Plasma) is on record?
Its Activity is 0.22 µM.

What about the Ki (Coagulation factor X) of the same compound?
The Ki was 0.012 nM.

And the Ki (Prothrombin)?
Its Ki is 160 nM.

What does the source list for `COc1cc(Cl)cc(C(=O)Nc2ccc(Cl)cn2)c1NC(=O)c1scc(CN2CCN=C2C)c1Cl`?
Activity (Plasma): 0.32 µM; Ki (Coagulation factor X): ≤ 0.01 nM; Ki (Prothrombin): 3300 nM

`COc1cc(Cl)cc(C(=O)Nc2ccc(Cl)cn2)c1NC(=O)c1scc(CN(C)C2=NCC(C)O2)c1Cl` (configuration not stated) was tested. Which Activity (Plasma) did it give?
Its Activity is 1.2 µM.

What about the Ki (Coagulation factor X) of the same compound?
The Ki was 0.12 nM.

And the Ki (Prothrombin)?
Its Ki is 410 nM.

How did the Activity (Plasma) turn out when `COc1cc(Cl)cc(C(=O)Nc2ccc(Cl)cn2)c1NC(=O)c1scc(Cn2ccnc2N)c1Cl` was run?
Its Activity is 0.77 µM.

And the Ki (Coagulation factor X)?
Its Ki is 0.006 nM.

What about the Ki (Prothrombin) of the same compound?
The Ki was 3500 nM.

Which results are given for `COc1cc(Cl)cc(C(=O)Nc2ccc(Cl)cn2)c1NC(=O)c1scc(CN(C)C(C)=N)c1Cl`?
Activity (Plasma): 0.25 µM; Ki (Coagulation factor X): ≤ 0.01 nM; Ki (Prothrombin): 920 nM

How did the Ki (Coagulation factor X) turn out when `COc1cc(Cl)cc(C(=O)Nc2ccc(Cl)cn2)c1NC(=O)c1scc(CNC(C)C)c1Cl` was run?
Its Ki is 1.4 nM.

What about the Ki (Prothrombin) of the same compound?
Its Ki is 5400 nM.

What does the source list for `COc1cc(Cl)cc(C(=O)Nc2ccc(Cl)cn2)c1NC(=O)c1scc(CN2CCNC2=N)c1Cl`?
Activity (Plasma): 0.27 µM; Ki (Coagulation factor X): ≤ 0.01 nM; Ki (Prothrombin): 1500 nM

With `COc1cc(Cl)cc(C(=O)Nc2ccc(Cl)cn2)c1NC(=O)c1scc(CN)c1Cl` as the compound, how does the Activity (Plasma) read?
Its Activity is 4.2 µM.

What about the Ki (Coagulation factor X) of the same compound?
Its Ki is 1 nM.

What about the Ki (Prothrombin) of the same compound?
Its Ki is > 5000 nM.

For `COCCN(Cc1csc(C(=O)Nc2c(OC)cc(Cl)cc2C(=O)Nc2ccc(Cl)cn2)c1Cl)C1=NCCO1`, which Activity (Plasma) is on record?
Its Activity is 1.1 µM.

And the Ki (Coagulation factor X)?
The Ki was 0.26 nM.

What about the Ki (Prothrombin) of the same compound?
Its Ki is 2000 nM.

Which Activity (Plasma) does the source give for `CCN(CC)Cc1csc(C(=O)Nc2c(OC)cc(Cl)cc2C(=O)Nc2ccc(Cl)cn2)c1Cl` here?
Its Activity is 2.4 µM.

What about the Ki (Coagulation factor X) of the same compound?
Its Ki is 0.32 nM.

What about the Ki (Prothrombin) of the same compound?
The Ki was 1500 nM.

Which Activity (Plasma) does the source give for `COc1cc(Cl)cc(C(=O)Nc2ccc(Cl)cn2)c1NC(=O)c1scc(CN2CCC(O)CC2)c1Cl` here?
The Activity was 3.2 µM.

And the Ki (Coagulation factor X)?
The Ki was 2.2 nM.

What about the Ki (Prothrombin) of the same compound?
The Ki was 770 nM.

`COc1cc(Cl)cc(C(=O)Nc2ccc(Cl)cn2)c1NC(=O)c1scc(CN(C)C2=NC(=O)CO2)c1Cl` was tested. Which Activity (Plasma) did it give?
The Activity was 2.2 µM.

And the Ki (Coagulation factor X)?
The Ki was 0.026 nM.

And the Ki (Prothrombin)?
Its Ki is 90 nM.

How did the Activity (Plasma) turn out when `COc1cc(Cl)cc(C(=O)Nc2ccc(Cl)cn2)c1NC(=O)c1scc(CN(C)CCCN(C)C)c1Cl` was run?
The Activity was 0.24 µM.

What about the Ki (Coagulation factor X) of the same compound?
The Ki was 0.024 nM.

What about the Ki (Prothrombin) of the same compound?
Its Ki is 300 nM.

For `CCN(Cc1csc(C(=O)Nc2c(OC)cc(Cl)cc2C(=O)Nc2ccc(Cl)cn2)c1Cl)C1=NC(C)CO1` (configuration not stated), which Activity (Plasma) is on record?
The Activity was 3.8 µM.

What about the Ki (Coagulation factor X) of the same compound?
Its Ki is 0.031 nM.

What about the Ki (Prothrombin) of the same compound?
The Ki was 580 nM.

For `CCNC(=O)N(C)Cc1csc(C(=O)Nc2c(OC)cc(Cl)cc2C(=O)Nc2ccc(Cl)cn2)c1Cl`, which Activity (Plasma) is on record?
Its Activity is 5.8 µM.

And the Ki (Coagulation factor X)?
The Ki was 0.02 nM.

What about the Ki (Prothrombin) of the same compound?
Its Ki is 450 nM.

`COc1cc(Cl)cc(C(=O)Nc2ccc(Cl)cn2)c1NC(=O)c1scc(CN(C)CC(O)CO)c1Cl` (configuration not stated) was tested. Which Activity (Plasma) did it give?
The Activity was 3.2 µM.

And the Ki (Coagulation factor X)?
The Ki was 0.26 nM.

What about the Ki (Prothrombin) of the same compound?
Its Ki is 1200 nM.

How did the Activity (Plasma) turn out when `COc1cc(Cl)cc(C(=O)Nc2ccc(Cl)cn2)c1NC(=O)c1scc(CN(C)C2=NCCC2)c1Cl` was run?
Its Activity is 0.4 µM.

What about the Ki (Coagulation factor X) of the same compound?
Its Ki is 0.004 nM.

And the Ki (Prothrombin)?
Its Ki is 970 nM.

For `COc1cc(Cl)cc(C(=O)Nc2ccc(Cl)cn2)c1NC(=O)c1scc(CN(C)C(=N)N)c1Cl`, which Activity (Plasma) is on record?
The Activity was 0.4 µM.

And the Ki (Coagulation factor X)?
The Ki was ≤ 0.01 nM.

What about the Ki (Prothrombin) of the same compound?
Its Ki is 630 nM.

`CCN(C)Cc1csc(C(=O)Nc2c(OC)cc(Cl)cc2C(=O)Nc2ccc(Cl)cn2)c1Cl` was tested. Which Activity (Plasma) did it give?
The Activity was 1.4 µM.

And the Ki (Coagulation factor X)?
The Ki was 0.22 nM.

What about the Ki (Prothrombin) of the same compound?
Its Ki is 1700 nM.

What does the source list for `CCNc1nccn1Cc1csc(C(=O)Nc2c(OC)cc(Cl)cc2C(=O)Nc2ccc(Cl)cn2)c1Cl`?
Activity (Plasma): 1.8 µM; Ki (Coagulation factor X): 0.005 nM; Ki (Prothrombin): 1100 nM

How did the Activity (Plasma) turn out when `COc1cc(Cl)cc(C(=O)Nc2ccc(Cl)cn2)c1NC(=O)c1scc(CN2CCCC2)c1Cl` was run?
Its Activity is 1.6 µM.

What about the Ki (Coagulation factor X) of the same compound?
Its Ki is 0.52 nM.

And the Ki (Prothrombin)?
Its Ki is 1400 nM.

Which results are given for `COc1cc(Cl)cc(C(=O)Nc2ccc(Cl)cn2)c1NC(=O)c1scc(CN(C)C(N)=O)c1Cl`?
Activity (Plasma): 2.6 µM; Ki (Coagulation factor X): 0.026 nM; Ki (Prothrombin): 340 nM

`COc1cc(Cl)cc(C(=O)Nc2ccc(Cl)cn2)c1NC(=O)c1scc(Cn2ccnc2C)c1Cl` was tested. Which Activity (Plasma) did it give?
Its Activity is 1.4 µM.

And the Ki (Coagulation factor X)?
The Ki was ≤ 0.01 nM.

And the Ki (Prothrombin)?
The Ki was 440 nM.

With `COc1cc(Cl)cc(C(=O)Nc2ccc(Cl)cn2)c1NC(=O)c1scc(CN(C)CCCO)c1Cl` as the compound, how does the Activity (Plasma) read?
Its Activity is 1.5 µM.

And the Ki (Coagulation factor X)?
The Ki was 0.18 nM.

And the Ki (Prothrombin)?
The Ki was 1100 nM.

Which Activity (Plasma) does the source give for `COc1cc(Cl)cc(C(=O)Nc2ccc(Cl)cn2)c1NC(=O)c1scc(CN(C)S(C)(=O)=O)c1Cl` here?
The Activity was 2.2 µM.

And the Ki (Coagulation factor X)?
The Ki was 0.045 nM.

What about the Ki (Prothrombin) of the same compound?
The Ki was 340 nM.

`COc1cc(Cl)cc(C(=O)Nc2ccc(Cl)cn2)c1NC(=O)c1scc(CN2CCN=C2SC)c1Cl` was tested. Which Activity (Plasma) did it give?
Its Activity is 0.53 µM.

What about the Ki (Coagulation factor X) of the same compound?
Its Ki is 0.004 nM.

What about the Ki (Prothrombin) of the same compound?
Its Ki is 2200 nM.

`COc1cc(Cl)cc(C(=O)Nc2ccc(Cl)cn2)c1NC(=O)c1scc(Cn2ccnc2NC(C)C)c1Cl` was tested. Which Activity (Plasma) did it give?
The Activity was 2.3 µM.

What about the Ki (Coagulation factor X) of the same compound?
The Ki was 0.008 nM.

What about the Ki (Prothrombin) of the same compound?
Its Ki is 1200 nM.

Which Activity (Plasma) does the source give for `COc1cc(Cl)cc(C(=O)Nc2ccc(Cl)cn2)c1NC(=O)c1scc(Cn2ccnc2)c1Cl` here?
Its Activity is 2 µM.

And the Ki (Coagulation factor X)?
The Ki was 0.022 nM.

What about the Ki (Prothrombin) of the same compound?
Its Ki is 510 nM.

For `COc1cc(Cl)cc(C(=O)Nc2ccc(Cl)cn2)c1NC(=O)c1scc(CN(C)C2=NCCS2)c1Cl`, which Activity (Plasma) is on record?
Its Activity is 1.8 µM.

And the Ki (Coagulation factor X)?
The Ki was 0.024 nM.

And the Ki (Prothrombin)?
The Ki was 100 nM.

For `CCN(Cc1csc(C(=O)Nc2c(OC)cc(Cl)cc2C(=O)Nc2ccc(Cl)cn2)c1Cl)C1=NCCO1`, which Activity (Plasma) is on record?
The Activity was 0.57 µM.

What about the Ki (Coagulation factor X) of the same compound?
Its Ki is 0.012 nM.

And the Ki (Prothrombin)?
Its Ki is 470 nM.

How did the Activity (Plasma) turn out when `COc1cc(Cl)cc(C(=O)Nc2ccc(Cl)cn2)c1NC(=O)c1scc(CN(C)C(=O)NCCO)c1Cl` was run?
The Activity was 4.1 µM.

What about the Ki (Coagulation factor X) of the same compound?
Its Ki is 0.05 nM.

And the Ki (Prothrombin)?
The Ki was 360 nM.

Which Activity (Plasma) does the source give for `COc1cc(Cl)cc(C(=O)Nc2ccc(Cl)cn2)c1NC(=O)c1scc(CN(C)C(=O)NCCC(=O)O)c1Cl` here?
Its Activity is 7 µM.

And the Ki (Coagulation factor X)?
Its Ki is 0.022 nM.

And the Ki (Prothrombin)?
Its Ki is 630 nM.

What does the source list for `COc1cc(Cl)cc(C(=O)Nc2ccc(Cl)cn2)c1NC(=O)c1scc(CN2CCSC2=N)c1Cl`?
Activity (Plasma): 1.4 µM; Ki (Coagulation factor X): ≤ 0.01 nM; Ki (Prothrombin): 2600 nM

Which results are given for `COc1cc(Cl)cc(C(=O)Nc2ccc(Cl)cc2)c1NC(=O)c1scc(CN2CCN(C)CC2)c1Cl`?
Activity (Plasma): 4.2 µM; Ki (Coagulation factor X): 0.43 nM; Ki (Prothrombin): 1300 nM

How did the Activity (Plasma) turn out when `COc1cc(Cl)cc(C(=O)Nc2ccc(Cl)cn2)c1NC(=O)c1scc(CN(CC(F)(F)F)C2=NCCO2)c1Cl` was run?
The Activity was 28 µM.

And the Ki (Coagulation factor X)?
The Ki was 2.2 nM.

And the Ki (Prothrombin)?
Its Ki is > 5000 nM.

What does the source list for `COc1cc(Cl)cc(C(=O)Nc2ccc(Cl)cn2)c1NC(=O)c1scc(CN2CCOCC2)c1Cl`?
Activity (Plasma): 4.9 µM; Ki (Coagulation factor X): 1.4 nM; Ki (Prothrombin): 1400 nM

How did the Activity (Plasma) turn out when `CCNCc1csc(C(=O)Nc2c(OC)cc(Cl)cc2C(=O)Nc2ccc(Cl)cn2)c1Cl` was run?
Its Activity is 2.2 µM.

What about the Ki (Coagulation factor X) of the same compound?
The Ki was 0.4 nM.

What about the Ki (Prothrombin) of the same compound?
The Ki was 2600 nM.

Which results are given for `COc1cc(Cl)cc(C(=O)Nc2ccc(Cl)cn2)c1NC(=O)c1scc(CN(C)C(=O)NCCN2CCCC2)c1Cl`?
Activity (Plasma): 1.1 µM; Ki (Coagulation factor X): 0.036 nM; Ki (Prothrombin): 140 nM
